From patent publication US6528049B2, “Bisexual attractants, aggregants and arrestants for adults and larvae of codling moth and other species of lepidoptera” (Trece, Inc., priority 1999, dated 2003) come the findings set out here.

What all share (assay type): in vivo, Cydia pomonella
In experiment [1] the test system is codling moth. The experiment is described as follows: Sticky traps baited with the single compound or pheromone. The text has this: FIG. 5 illustrates mean attraction of female and male codling moths to sticky traps baited with a single host plant volatile, ethyl (2E,4Z)-2,4-decadienoate. The attraction was followed over a two month period.
Experiment [2] concerns codling moth. Put plainly: Field study of individual alcohols, aldehydes and esters. The following applies: individual compounds typically of purity 90-98%. The text has this: Attractive activity of these compounds for male and female codling moth was compared to purified ethyl (2E,4Z)-2,4-decadienoate.
When the cumulative evaluation of all studied compounds and/or blends containing aldehyde, alcohol, ester and terpene compounds was made, the following results clearly confirmed the findings seen in Table 3.

Experiment [3] deals with first-instar or neonate larval worms of the codling moth. The experiment is described as follows: Dual-choice larval orientation bioassay in petri dishes. How it is done: Behavioral orientation responses in the laboratory of first-instar or neonate larval worms of the codling moth are seen in Table 16. Data shown in Table 16 represents means of to 50 bioassay replications using five neonates per experiment conducted in small areas (10 cm diameter petri dishes). Experiments were dual-choice tests, where the released neonate larvae crawled and made perceptual choices between two small (one cm diameter) filter paper discs, with one disk treated with 1 ug or 10 ug of ethyl (2E,4Z) decadienoate and the other disc treated with an equivalent volume of solvent (methylene chloride).

Experiment [4] deals with codling moth. Put plainly: Inherent attractancy field test of HPV blends in baited sticky traps in walnut orchard. The following applies: walnut orchard, blends 10 mg/white septa, ethyl (2E,4Z)-2,4-decadienoate 5 mg. As to the method: The blends listed in Table 2 were then field tested in walnut orchards for their attractancy to male and female codling moths, and also for enhancement with synthetic codling moth pheromone and other additives identified above. Their total capture (both males and females), and their individual male and female capture were determined and results obtained, were compared to insect capture obtained with purified individual ester, compound #25 namely ethyl (2E,4Z)-2,4-decadienoate, and to the codling moth male sex pheromone compound #26 in Table 3.
Individual blends containing representative aldehyde, alcohol, ester, monoterpene or sesquiterpene blends were provided in the traps in 10 mg/white septa.
Individual host-plant volatile (HPV) blends identified by the #1-23 in Table 3 were tested for codling moth attractancy in a walnut orchard, and the results were compared to the isolated purified ethyl (2E,4Z)-2,4-decadienoate (#25), to pheromone (#26) and to solvent controls (#24).
Twenty-five HPV blends and eight individual compounds were field tested. One synthetic blend, “ester blend #10,” elicited excellent codling moth attraction. In field tests, the other tested blends (see Table 3) and compounds captured no moths over a three month period, except for an “apple-skin surface extract” (Golden Delicious, ether solvent) (Σ=3 codling moth captured, 1♂: 2♀♀) and the individual compound, (E,E)-α-farnesene (Σ=1♂ codling moth captured). The field tests are presented in Table 3 and show attraction specificity for HPV ester blend #10.
Sticky traps (ICP and IIB traps, Trécé, Inc. Salinas, Calif.) were baited with either extracts, blends of HPVs, or individual HPVs (>95% purity) that evaporated from impregnated rubber septa. HPV blends, or individual HPV compounds, were diluted in hexane and pipetted onto rubber septa at approximate doses of 10 mg/septum. A single treatment septum was placed in each sticky wing-trap, and hung approximately six meters high in the outer walnut canopy. Trap liners and treatment HPV septa were replaced every 10-14 days and pheromone septa every month and tests were conducted throughout two summers.
A replicated series of different HPV treatment traps, control “blank” (unbaited) trap, and a commercial pheromone-baited trap (Trécé, Inc.) were distributed 5 trees apart throughout two distant Hartley walnut orchards and validated in 12 walnut orchards. The orchards were distinct, with one using three summer insecticide sprays and the other had no spraying. Thus, these test orchards had low vs. moderate relative populations of codling moths. Significant effects on the gender of codling moths captured were judged by paired tests, either T-test or a nonparametric test.

For a further experiment, the system named is codling moths. The experiment is described as follows: Effect of sample purity on trap capture. How it is done:
Additional purification procedures were conducted to show the differences and superiority of purified pear and apple volatiles over commercially available products. For that purpose, extracts were purified from commercially available compounds, typically available in only about 80-85% purity, to a purity between 90-100%, preferably over 98% purity. As the purity of the sample of ethyl (2E,4Z)-2,4-decadienoate increased so also did its attractancy to codling moths. For example, the mean captures (±SEM) were 4.5 (±2.0) for an 86% pure sample, 6.5 (±4.4) for a 93.6% pure sample and 9.3 (±3.2) for 98.8% pure sample.

Experiment [5] relates to codling moth. Put plainly: Trap capture in a pheromone mating disruption treated walnut orchard. As to conditions: 10 mg/lure, FIG. 6. How it is done:
FIG. 6 illustrates total capture of codling moth males and females, in a mating disruption treated orchard by using pheromone lures (-▴-) and by using lures containing ethyl (2E,4Z)-2,4-decadienoate (-♦-) (10 mg/lure)

Experiment [6] has as its system codling moth. The experiment is described as follows: Low loading dose response trap study (FIG. 13). The following applies: loading doses 0.1 μg to 10 mg in grey septa. How it is done: In this study, both males (-Δ-) and females (-□-) responded to a threshold dose of less than 10 μg of the ester attractant, while at progressively higher loading rates females were more responsive than males.

Experiment [7] deals with codling moth. The experiment is described as follows: Trap capture with proportional mixes of ethyl 2,4-decadienoate isomers. As to conditions: 1 mg dose/gray septum. As to the method:
Additionally, studies were performed to determine the attraction of codling moth to proportional mixes of (2E,4Z) and (2E,4E) isomers of ethyl 2,4-decadienoate and highly purified samples of each. Traps were baited with 1 mg dose/gray septum.

Setting [8] is: Table 15, sticky trap, 3 traps, 43 trap checks (pheromone: 1 trap, 19 trap checks).
[9] abbreviates: five neonates per experiment, disc with 1 ug or 10 ug vs solvent disc.

Consider `CCCCC/C=C\C=C\C(=O)OCC` [Ethyl (2E,4Z)-2,4-Decadienoate, ethyl (2E,4Z)-2,4-decadienoate], for which, in the experiment on codling moth [1] (Table 15, sticky trap), the “Female Capture: Sum:” value is listed as 76.4 Moths/Trap/Night and the “Male Capture: Sum:” value was 24.9 Moths/Trap/Night. In addition, in the experiment on codling moth [1] (setting [8]), the “Female Capture: Mean ± SEM” value turned out to be 1.78 ± 0.45 Moths/Trap/Night and the “Male Capture: Mean ± SEM” value is on record as 0.58 ± 0.12 Moths/Trap/Night. Moreover, in the experiment on codling moth [1] (sticky traps, two month period), the “attractiveness relative to pheromone” value is on record as “approximately 48%”. For the same compound, the “attractancy to male and female codling moth (in words)” value in the experiment with codling moth [2] is “most active”. The “Arrestment; average time (sec) on or under disc:” value in experiment [3] (1 ug dose of attractant) worked out at 19.7 ± 5.6 s. The “Arrestment; average time (sec) on or under disc:” value in experiment [3] (10 ug dose of attractant) stood at 33.0 ± 10.7 s. Moreover, in experiment [3] (setting [9]), the “Attraction; average number of neonates contacting disc: x ± SEM” value is 4.5 ± 0.9 and the “Latency: average time (sec) to first arrive at disc: x ± SEM” value is 74.5 ± 16.1 s. For the same compound, in the experiment with codling moth [4], the “FEMALE CM Captured with HPV; ♀♀/trap night ± SEM” value was 2.04 ± 0.85 ♀♀/trap night, the “MALE CM Captured with HPV; ♂♂/trap/night ± SEM” value is recorded as 1.42 ± 0.59 ♂♂/trap/night and the “Total CM Captured with HPV: (CM/trap/night ± SEM)” value is 3.46 ± 1.44 CM/trap/night. For the same compound, the “Total CM Captured with HPV: (CM/trap/night ± SEM)” value in the experiment with codling moth [4] (listed as #25) stood at 3.46 CM/trap/night. For the same compound, the “mean captures (±SEM)” value with codling moths (86% pure sample) is listed as 4.5 (±2.0). Moreover, the “mean captures (±SEM)” value with codling moths (93.6% pure sample) is reported as 6.5 (±4.4). Also, in the experiment on codling moths (98.8% pure sample), the “mean captures (±SEM)” value was 9.3 (±3.2). In the experiment with codling moth [5], the “number of codling moths captured relative to lures with pheromone only” value was “more than double”. In addition, the “threshold dose to which males and females responded” value with codling moth [6] is listed as “less than 10 μg”. Besides, in the experiment with codling moth [7], the “Female CM Captured ♀♀/trap/night ± SEM” value is 0.76 ± 0.10 ♀♀/trap/night, the “MALE CM Captured: ♂♂/trap/night ± SEM” value is on record as 0.62 ± 0.29 ♂♂/trap/night and the “Total CM Captured: CM/trap ± SEM” value worked out at 1.38 ± 0.37 CM/trap.
